From patent publication US20230159467A1, “NOVEL COMPOUNDS USEFUL IN THE TREATMENT AND/OR PREVENTION OF A DISEASE, DISORDER OR CONDITION ASSOCIATED WITH ANGIOTENSIN II” (Vicore Pharma AB, priority 2020, published 2023) come the findings set out here.

The structures appear in SMILES notation.

Data set [1] deals with CYP3A. In words: CYP450 inhibition assay, pooled human liver microsomes, midazolam substrate. The conditions noted are these: for inhibition at 10 min, 10 µM: both, human, pooled human liver microsomes, pH 7.4, probe midazolam. (In general: Liver microsomes are vesicles of endoplasmic reticulum, rich in cytochrome P450 enzymes.)
In data set [2] the test system is CYP3A. In words: CYP450 inhibition assay, pooled human liver microsomes, testosterone substrate. To be noted: at 10 μM; for inhibition at 10 min, 10 µM: both, human, pooled human liver microsomes, pH 7.4, probe testosterone, CYP 450 Inhibition CYP3A testosterone.
Experimental: The compound was tested at a single concentration (10 μM) with 0.1% DMSO. […] The reaction was initiated by adding a NADPH-generating system. The reaction was allowed for 10 min and stopped by transferring the reaction mixture to acetonitrile/methanol. Samples were mixed and centrifuged. Supernatants were used for HPLC-MS/MS of the respective metabolite. The activity of human cytochrome P450 (CYP) enzymes were determined by following the formation of a metabolite of the probe substrate. The following enzymes were evaluated for inhibition using the listed reference substrates and reference inhibitors:
CYP1A—phenacetin (reference inhibitor furafylline), CYP2B6—bupropion (reference inhibitor clopidogre), CYP2C8-amodiaquine (reference inhibitor montelukast), CYP2C9—diclofenac (reference inhibitor sulfaphenazole), CYP2C19—omeprazole (reference inhibitor oxybutynin), CYP2D6—dextromethorphan (reference inhibitor quinidine), CYP3A—midazolam (reference inhibitor ketoconazol) and CYP3A—testosterone (reference inhibitor ketoconazol). The reference inhibitors were tested in each assay at multiple concentrations to obtain an IC50 value. Peak areas corresponding to the metabolite were recorded. The percent of control activity was calculated by comparing the peak area in the presence of the test compound to the control samples containing the same solvent. Subsequently, the percent inhibition was calculated by subtracting the percent control activity from 100. The IC50 value (concentration causing a half-maximal inhibition of the control value) was determined by non-linear regression analysis of the concentration-response curve using the Hill equation.
The nature of data set [3]: Stability in human liver microsomes. In kind it is in vitro ADME. The conditions noted are these: half-life. On the procedure: (§1) Stability in liver microsomes. Human, mouse and rat liver microsomes were used to assess the metabolic stability for the compounds. Metabolic stability was determined in 0.5 mg/mL human, mouse or rat liver microsomes at a compound concentration of 1 μM in 100 mM potassium phosphate buffer (pH 7.4) in a total incubation volume of 500 μL by Eurofins. The assay matrix was: human liver microsomes: mixed gender and pool of 50, rat liver microsomes: male, Sprague-Dawley, pool of 100 or more and mouse liver microsomes: male,CD-1, pool of 250 or more. Final microsomal protein concentration: 0.1mg/mL. The test concentration was 0.1 μM with 0.01% DMSO, 0.25% acetonitrile and 0.25% methanol by default. […] The reaction was initiated by adding NADPH-generating system and was incubated for 0, 15, 30, 45, and 60 min. The reaction was stopped by transferring the incubation mixture to acetonitrile/methanol. Samples were then mixed and centrifuged. Four reference compounds were tested in each assay. Propranolol and imipramine are relatively stable, whereas verapamil and terfenadine are readily metabolized inhuman liver microsomes. Samples were analyzed by HPLC-MS/MS using selected reaction monitoring. The HPLC system consisted of a binary LC pump with autosampler, a C-18 column, and a gradient. Peak areas corresponding to the test compound were recorded. The compound remaining was calculated by comparing the peak area at each time point to time zero. The half-life was calculated from the slope of the initial linear range of the logarithmic curve of compound remaining (%) vs. time, assuming first order kinetics. In addition, the intrinsic clearance (Clint) was calculated.^19,20

The target of another data set is T1, CYP2B6 (Homo sapiens, UniProt P20813).
T1 sequence (P20813 1-491): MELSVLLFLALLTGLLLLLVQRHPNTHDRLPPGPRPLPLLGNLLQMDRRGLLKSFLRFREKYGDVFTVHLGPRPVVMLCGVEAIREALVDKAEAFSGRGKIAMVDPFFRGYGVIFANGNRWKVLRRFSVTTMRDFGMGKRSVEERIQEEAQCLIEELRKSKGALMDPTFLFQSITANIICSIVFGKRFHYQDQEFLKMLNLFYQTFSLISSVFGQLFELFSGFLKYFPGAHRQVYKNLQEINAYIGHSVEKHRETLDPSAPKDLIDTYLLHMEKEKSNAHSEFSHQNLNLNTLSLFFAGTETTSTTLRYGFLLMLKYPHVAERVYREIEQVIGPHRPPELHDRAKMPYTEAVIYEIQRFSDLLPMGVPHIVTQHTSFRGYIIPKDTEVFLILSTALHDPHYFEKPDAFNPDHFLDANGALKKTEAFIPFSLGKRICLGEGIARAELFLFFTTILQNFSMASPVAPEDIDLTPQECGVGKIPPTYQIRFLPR
In words: CYP450 inhibition assay, pooled human liver microsomes, bupropion substrate. To be noted: for inhibition at 10 min, 10 µM: both, human, pooled human liver microsomes, pH 7.4, probe bupropion.

Data set [4] is described as follows: Stability in mouse liver microsomes. It counts as in vitro ADME. To be noted: half-life. On the procedure: as §1
The next data set deals with CYP2D6 (Homo sapiens, UniProt P10635). In words: CYP450 inhibition assay, pooled human liver microsomes, dextromethorphan substrate. The conditions noted are these: for inhibition at 10 min, 10 µM: both, human, pooled human liver microsomes, pH 7.4, probe dextromethorphan.
The next data set addresses T2, CYP2C8 (Homo sapiens, UniProt P10632).
T2 sequence (P10632 1-490): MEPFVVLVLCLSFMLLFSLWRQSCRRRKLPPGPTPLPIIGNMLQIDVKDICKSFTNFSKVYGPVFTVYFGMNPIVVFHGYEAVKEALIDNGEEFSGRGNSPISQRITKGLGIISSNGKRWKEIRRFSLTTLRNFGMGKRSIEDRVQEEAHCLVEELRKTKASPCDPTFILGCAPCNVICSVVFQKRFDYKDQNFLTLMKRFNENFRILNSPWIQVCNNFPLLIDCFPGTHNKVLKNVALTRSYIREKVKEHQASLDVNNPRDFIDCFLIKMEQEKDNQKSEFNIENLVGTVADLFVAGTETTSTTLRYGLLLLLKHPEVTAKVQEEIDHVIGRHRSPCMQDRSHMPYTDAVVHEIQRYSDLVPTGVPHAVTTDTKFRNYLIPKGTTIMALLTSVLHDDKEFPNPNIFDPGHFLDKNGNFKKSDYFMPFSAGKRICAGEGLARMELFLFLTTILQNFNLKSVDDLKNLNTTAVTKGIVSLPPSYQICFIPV
In words: CYP450 inhibition assay, pooled human liver microsomes, amodiaquine substrate. To be noted: for inhibition at 10 min, 10 µM: both, human, pooled human liver microsomes, pH 7.4, probe amodiaquine.

The target in another data set is CYP2C19 (Homo sapiens, UniProt P33261). In words: CYP450 inhibition assay, pooled human liver microsomes, omeprazole substrate. The conditions noted are these: both, human, pooled human liver microsomes, pH 7.4, probe omeprazole.
Data set [5] is described as follows: Stability in rat liver microsomes. It counts as in vitro ADME. The conditions noted are these: half-life. How it is done:
as §1

The target in the next data set is T3, CYP1A (Homo sapiens, UniProt P05177).
T3 sequence (P05177 1-516): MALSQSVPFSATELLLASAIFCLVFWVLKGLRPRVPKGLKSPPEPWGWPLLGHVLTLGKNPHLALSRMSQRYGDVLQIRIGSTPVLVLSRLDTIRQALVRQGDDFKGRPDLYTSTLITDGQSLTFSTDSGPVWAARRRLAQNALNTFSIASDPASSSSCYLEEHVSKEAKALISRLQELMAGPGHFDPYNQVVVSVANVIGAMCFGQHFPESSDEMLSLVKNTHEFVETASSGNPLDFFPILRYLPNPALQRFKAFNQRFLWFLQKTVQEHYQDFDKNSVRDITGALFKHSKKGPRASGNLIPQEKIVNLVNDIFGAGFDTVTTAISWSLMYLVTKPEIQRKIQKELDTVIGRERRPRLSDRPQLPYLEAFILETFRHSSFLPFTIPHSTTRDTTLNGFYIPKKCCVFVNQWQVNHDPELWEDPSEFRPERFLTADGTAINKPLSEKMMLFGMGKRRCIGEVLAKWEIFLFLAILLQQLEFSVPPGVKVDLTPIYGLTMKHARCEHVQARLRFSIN
In words: CYP450 inhibition assay, pooled human liver microsomes, phenacetin substrate. The conditions noted are these: for inhibition at 10 min, 10 µM: both, human, pooled human liver microsomes, pH 7.4, probe phenacetin.

Data set [6] is described as follows: Kinetic solubility in PBS pH 7.4. It counts as physicochemical. The conditions noted are these: Dulbecco's PBS buffer, aqueous buffer, kinetic from dmso stock; PBS pH 7.4, 24 h room temperature, 2% DMSO. How it is done: Kinetic solubility. Dulbecco's PBS buffer was used (NaCl 137 mM, KCl 2.7 mM, Na2HPO4 8.1 mM, KH2PO4 1.5 mM with pH 7.4). The test compound is prepared at 200 μM in the PBS buffer from a 10 mM DMSO stock solution. The final DMSO concentration is 2%. The buffer samples were mixed thoroughly followed by incubation at room temperature for 24 h. At the end of the incubation, the buffer samples were centrifuged and supernatants were then injected for the HPLC analysis. A calibration standard of the test compound was prepared at 200 μM in methanol/water (3/2, v/v) from a 10 mM DMSO stock solution on the day of HPLC analysis. The analysis was conducted by HPLC-UV/VIS with photodiode array detection, with monitoring at 205, 230, 260, and 300 nm wavelengths. The HPLC system consisted of a C18 column using a gradient of A and B (A=12 mM ammonium formate, 6 mM formic acid in water, pH 4.0, B=6 mM ammonium formate, 3 mM formic acid acetonitrile/water (9/1, v/v)). Reference compounds used were metoprolol, rifampicin, ketoconazole, phenytoin, haloperidol, simvastatin, diethylstilbestrol, and tamoxifen, ranking from fully soluble (200 μM) to poorly soluble (<1μM). […] The range of the assay was approximately 0.5 μM to 200 μM. The chromatographic purity (%) was determined as the peak area of the principal peak relative to the total integrated peak areas in the HPLC chromatogram of the calibration standard.

A further data set addresses CYP2C9 (Homo sapiens, UniProt P11712). In words: CYP450 inhibition assay, pooled human liver microsomes, diclofenac substrate. The conditions noted are these: both, human, pooled human liver microsomes, pH 7.4, probe diclofenac.

The term inhibition denotes the relative decrease from the control value, in per cent. The term kinetic solubility denotes solubility judged after dilution from a stock solution rather than from solid.

Chain of CYP2D6 (P10635 whole entry): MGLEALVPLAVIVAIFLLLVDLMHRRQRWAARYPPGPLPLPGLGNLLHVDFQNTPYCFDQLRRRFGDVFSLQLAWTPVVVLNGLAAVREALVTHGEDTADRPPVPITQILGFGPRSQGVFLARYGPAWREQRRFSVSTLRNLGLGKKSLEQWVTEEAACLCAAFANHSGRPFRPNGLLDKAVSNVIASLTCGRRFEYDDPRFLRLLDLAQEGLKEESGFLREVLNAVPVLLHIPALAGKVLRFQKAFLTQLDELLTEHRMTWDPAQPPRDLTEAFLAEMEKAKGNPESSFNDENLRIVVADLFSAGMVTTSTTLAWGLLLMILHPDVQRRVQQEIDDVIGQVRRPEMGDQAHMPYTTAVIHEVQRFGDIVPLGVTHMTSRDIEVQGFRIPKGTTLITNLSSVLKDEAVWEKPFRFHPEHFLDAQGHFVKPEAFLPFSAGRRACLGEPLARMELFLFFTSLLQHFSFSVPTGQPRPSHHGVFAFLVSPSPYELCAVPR
Chain of CYP2C9 (P11712 whole entry): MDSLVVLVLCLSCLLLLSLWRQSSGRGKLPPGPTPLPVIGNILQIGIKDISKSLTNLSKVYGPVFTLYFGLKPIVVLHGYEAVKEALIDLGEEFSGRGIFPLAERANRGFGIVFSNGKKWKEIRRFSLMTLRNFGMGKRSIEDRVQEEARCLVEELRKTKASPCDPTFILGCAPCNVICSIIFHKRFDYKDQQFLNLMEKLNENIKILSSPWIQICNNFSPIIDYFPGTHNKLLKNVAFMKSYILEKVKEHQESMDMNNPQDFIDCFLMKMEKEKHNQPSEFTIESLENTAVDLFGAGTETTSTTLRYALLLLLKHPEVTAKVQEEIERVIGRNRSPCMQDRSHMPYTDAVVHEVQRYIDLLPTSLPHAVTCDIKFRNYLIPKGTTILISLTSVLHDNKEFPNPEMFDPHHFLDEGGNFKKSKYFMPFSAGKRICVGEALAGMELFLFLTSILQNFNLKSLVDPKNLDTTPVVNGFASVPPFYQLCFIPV
Chain of CYP2C19 (P33261 whole entry): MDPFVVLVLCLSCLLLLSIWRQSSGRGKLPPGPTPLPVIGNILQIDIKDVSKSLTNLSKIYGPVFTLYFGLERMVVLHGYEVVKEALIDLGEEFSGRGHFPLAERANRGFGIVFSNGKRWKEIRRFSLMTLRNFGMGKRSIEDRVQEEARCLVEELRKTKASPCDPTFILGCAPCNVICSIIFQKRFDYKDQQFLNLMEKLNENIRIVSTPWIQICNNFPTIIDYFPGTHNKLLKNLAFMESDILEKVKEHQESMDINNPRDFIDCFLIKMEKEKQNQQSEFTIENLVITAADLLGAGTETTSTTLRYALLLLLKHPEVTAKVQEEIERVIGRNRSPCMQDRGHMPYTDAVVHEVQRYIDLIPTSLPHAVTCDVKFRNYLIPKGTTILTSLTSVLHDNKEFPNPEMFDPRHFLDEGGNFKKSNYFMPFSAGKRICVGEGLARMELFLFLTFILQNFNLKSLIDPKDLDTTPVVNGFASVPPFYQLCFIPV

Regarding `CCCCOC(=O)[N-]S(=O)(=O)c1sc(CC(C)C)cc1-c1ccc(Cn2ccnc2)cc1.[Na+]` [Example 13, Sodium ((3-(4-((1H-imidazol-1-yl)methyl)phenyl)-5-isobutylthiophen-2-yl)sulfonyl)(butoxycarbonyl)amide, reference compound], the “CYP 450 Inhibition CYP3A midazolam” value with CYP3A [1] (at 10 μM, midazolam substrate) is 93%. Moreover, in the data set on CYP3A [2], the “CYP 450 Inhibition CYP3A testosterone” value is 90%. For the same compound, the inhibition at 10 min, 10 µM is 84% in the data set on CYP3A [2]; 53% at CYP2B6; 69% at CYP2C8; 93% on CYP2C19; 77% on CYP1A. Also, the “Stability in liver microsomes HLM” value in data set [3] is reported as 36 min. Moreover, at CYP2B6 (at 10 μM), the “CYP 450 Inhibition CYP2B6” value is on record as 63%. Further, in data set [4], the “Stability in liver microsomes MLM” value came out at 39 min. For the same compound, on CYP2D6 (at 10 μM), the “CYP 450 Inhibition CYP2D6” value is 90%. The “CYP 450 Inhibition CYP2C8” value at CYP2C8 (at 10 μM) came to 82%. In addition, in data set [5], the “Stability in liver microsomes RLM” value was 20 min. For the same compound, at CYP1A (at 10 μM), the “CYP 450 Inhibition CYP1A” value was 89%. Besides, the solubility (kinetic) at 24 h in data set [6] came to 198 µM.

`COC(=O)[N-]S(=O)(=O)c1sc(CC(C)C)cc1-c1ccc(Cn2ccnc2C(C)(C)C)cc1.[K+]` [Example 12B, Potassium ((3-(4-((2-(tert-butyl)-1H-imidazol-1-yl)methyl)phenyl)-5-isobutylthiophen-2-yl)sulfonyl)(methoxycarbonyl)amide]: the inhibition at 10 min, 10 µM in the data set on CYP3A [1] is -11.6%; with CYP3A [2], 6.8%; at CYP2B6, 25%; at CYP2C9 it was 29%; against CYP2D6, 1.6%; against CYP2C8, 73%. Further, the inhibition at 10 min, 10 µM was found to be 36% on CYP2C19 and 8.3% at CYP1A. Further, the “Stability in liver microsomes HLM” value in data set [3] is given as greater than 60 min. For the same compound, the “Stability in liver microsomes MLM” value in data set [4] was 39 min. For the same compound, the “Stability in liver microsomes RLM” value in [5] is greater than 60 min. The compound further came in with a kinetic solubility at 24 h in data set [6] greater than 200 µM.

Consider `CCCCOC(=O)[N-]S(=O)(=O)c1ccc(CC(C)C)cc1-c1ccc(Cn2ccnc2C(C)(C)O)cc1.[K+]` [Example 7B, Potassium (butoxycarbonyl)((4′-((2-(2-hydroxypropan-2-yl)-1H-imidazol-1-yl)methyl)-5-isobutyl-[1,1′-biphenyl]-2-yl)sulfonyl)amide], for which the inhibition at 10 min, 10 µM is -10.7% in the data set on CYP3A [1]; 3.1% in the data set on CYP3A [2]; 40% against CYP2B6; 74% on CYP2C9; 16% against CYP2D6; 68% against CYP2C8. Moreover, the inhibition at 10 min, 10 µM against CYP2C19 was 52%; at CYP1A, -50%. Also, the “Stability in liver microsomes HLM” value in data set [3] amounted to 28 min. Further, in data set [4], the “Stability in liver microsomes MLM” value is recorded as 20 min. Besides, the “Stability in liver microsomes RLM” value in [5] was 22 min. Also, the solubility (kinetic) at 24 h in data set [6] was greater than 200 µM.

Consider `CCCCOC(=O)[N-]S(=O)(=O)c1ccc(CC(C)C)cc1-c1ccc(Cn2ccnc2C(C)(C)C)cc1.[K+]` [Example 2B, Potassium ((4′-((2-(tert-butyl)-1H-imidazol-1-yl)methyl)-5-isobutyl-[1,1′-biphenyl]-2-yl)sulfonyl)(butoxycarbonyl)amide], for which the inhibition at 10 min, 10 µM in the data set with CYP3A [1] came out at 16%; in the data set with CYP3A [2], 27%; on CYP2B6, 57%; against CYP2C9 it was 91%; against CYP2D6 it was 15%; on CYP2C8 it was 81%. Moreover, the inhibition at 10 min, 10 µM at CYP2C19 was found to be 71%; against CYP1A it was 4.5%. For the same compound, the “Stability in liver microsomes HLM” value in [3] is reported as 11 min. Further, the “Stability in liver microsomes MLM” value in data set [4] is 10 min. In data set [5], the “Stability in liver microsomes RLM” value is 8 min. For the same compound, the kinetic solubility at 24 h in data set [6] was 183 µM.
